We go through eight compounds from ChEMBL document CHEMBL1201862, “PubChem BioAssay data set” (2004).

Some test systems named below: SNB-19; 786-0; NCI-H23; UACC-257; SN12C; NCI-H522; NCI/ADR-RES; OVCAR-8; T47D; COLO 205; CCRF-CEM; OVCAR-4; ACHN; KM12; TK-10; OVCAR-3; IGROV-1; MDA-N; HCT-116.
Common to all, as to assay: DTP human tumour cell line panel, 48 h

The structures appear in SMILES notation.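 Each compound was tested at five concentrations against cells in 96-well plates for 48 hours. GI50 is the concentration that inhibits growth by half.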 Calls of active or inactive are those of the source. Cut-off read from the data, not from the text of the source: active = GI50 up to about 1.1 µM and inactive = higher.

By GI50 is commonly meant the concentration at which growth is held to half of that of the control. On to `COc1cccc(/C=C2\N=C(c3ccccc3)OC2=O)c1`, for which the GI50 with SNB-19 is 35.1 µM (inactive); with 786-0 it was 74.5 µM (inactive); with NCI-H23, > 100 µM (inactive); in the experiment on UACC-257 it was > 100 µM (inactive); in the experiment with SN12C, 65.2 µM (inactive); with NCI-H522, 12.3 µM (inactive). For the same compound, the GI50 is 25.8 µM (inactive) in the experiment on NCI/ADR-RES; 64.4 µM (inactive) with OVCAR-8; > 100 µM (inactive) with T47D; 85.1 µM (inactive) with COLO 205; 25 µM (inactive) in the experiment on CCRF-CEM; 53.6 µM (inactive) in the experiment on OVCAR-4. Besides, the GI50 was > 100 µM (inactive) in the experiment with ACHN; 73.5 µM (inactive) with KM12; > 100 µM (inactive) in the experiment with TK-10; 63.1 µM (inactive) with OVCAR-3; 34.1 µM (inactive) in the experiment on IGROV-1; 47.2 µM (inactive) in the experiment with MDA-N. Moreover, in the experiment with HCT-116, the GI50 was > 100 µM (inactive).
Consider `CN(CC1(CO)CCC1)c1cc(Cl)nc(N)n1`, for which the GI50 in the experiment with SNB-19, with 786-0, in the experiment on NCI-H23, in the experiment on UACC-257, with SN12C and in the experiment on NCI-H522 was > 100 µM (inactive) throughout. The GI50 with NCI/ADR-RES was > 100 µM (inactive); in the experiment on OVCAR-8, > 100 µM (inactive); in the experiment with T47D it was > 100 µM (inactive); in the experiment on COLO 205 it was > 100 µM (inactive); in the experiment on CCRF-CEM, > 100 µM (inactive); in the experiment with OVCAR-4, 58.9 µM (inactive). For the same compound, the GI50 in the experiment with ACHN, in the experiment on KM12, with TK-10, with OVCAR-3, in the experiment with IGROV-1 and with MDA-N was > 100 µM (inactive) in each case. Further, the GI50 with HCT-116 is > 100 µM (inactive).
In the case of `Cc1nc(-c2ccc(/N=C/c3ccc(N(CCOS(C)(=O)=O)CCOS(C)(=O)=O)cc3C)cc2)cs1`, the GI50 in the experiment on SNB-19 was > 100 µM (inactive); with 786-0, 13.8 µM (inactive); with NCI-H23 it was 35.4 µM (inactive); in the experiment with UACC-257, 22.8 µM (inactive); with SN12C it was 27.8 µM (inactive); with NCI-H522, 24.3 µM (inactive). Also, the GI50 was > 100 µM (inactive) in the experiment on NCI/ADR-RES; 51.9 µM (inactive) with OVCAR-8; 7.23 µM (inactive) in the experiment with T47D; 28.5 µM (inactive) with COLO 205; 3.65 µM (inactive) in the experiment with CCRF-CEM; 59.6 µM (inactive) in the experiment on OVCAR-4. Besides, the GI50 was 3.82 µM (inactive) in the experiment on ACHN; 32.1 µM (inactive) in the experiment on KM12; 55.5 µM (inactive) with TK-10; 30.8 µM (inactive) in the experiment with OVCAR-3; 28.8 µM (inactive) in the experiment with IGROV-1; 46 µM (inactive) in the experiment on MDA-N. Further, in the experiment with HCT-116, the GI50 is 34.8 µM (inactive).
For the compound `c1ccc(CNCCCNCCCCNCCCNCc2ccccc2)cc1`, the GI50 was 13.2 µM (inactive) in the experiment with SNB-19; 1.5 µM (inactive) in the experiment with 786-0; 2.38 µM (inactive) in the experiment with NCI-H23; 15 µM (inactive) in the experiment on UACC-257; 3.72 µM (inactive) in the experiment on SN12C; 1.57 µM (inactive) in the experiment on NCI-H522. The GI50 with NCI/ADR-RES is 38.7 µM (inactive); with OVCAR-8, 12.8 µM (inactive); with T47D, 10.8 µM (inactive); with COLO 205 it was 1.82 µM (inactive); with CCRF-CEM, 1.86 µM (inactive); in the experiment on OVCAR-4, 13.8 µM (inactive). In addition, the GI50 with ACHN is 6.05 µM (inactive); with KM12, 5.52 µM (inactive); with TK-10, 5.69 µM (inactive); with OVCAR-3, 11.9 µM (inactive); in the experiment on IGROV-1, 1.93 µM (inactive); in the experiment on MDA-N, 1.83 µM (inactive). In addition, the GI50 with HCT-116 is 2.94 µM (inactive).
For `Cc1ccc(Nc2nc3[nH]ccc3c(=O)[nH]2)cc1`, the GI50 is 96.2 µM (inactive) in the experiment with SNB-19; > 100 µM (inactive) with 786-0; > 100 µM (inactive) in the experiment on NCI-H23; > 100 µM (inactive) in the experiment on UACC-257; > 100 µM (inactive) in the experiment on SN12C; > 100 µM (inactive) with NCI-H522. The GI50 in the experiment on NCI/ADR-RES was > 100 µM (inactive); in the experiment with OVCAR-8, > 100 µM (inactive); in the experiment with T47D, 56.1 µM (inactive); with COLO 205 it was > 100 µM (inactive); with CCRF-CEM, > 100 µM (inactive); in the experiment on OVCAR-4 it was > 100 µM (inactive). In addition, the GI50 is > 100 µM (inactive) with ACHN; > 100 µM (inactive) in the experiment on KM12; 95.7 µM (inactive) in the experiment on TK-10; 33 µM (inactive) with OVCAR-3; > 100 µM (inactive) in the experiment with IGROV-1; > 100 µM (inactive) in the experiment on MDA-N. Also, the GI50 in the experiment with HCT-116 is > 100 µM (inactive).
In the case of `O=c1c2ccccc2n2nnc3ccc(NCCCNCCNCCCNc4ccc5nnn6c7ccccc7c(=O)c4c56)c1c32`, the GI50 in the experiment with SNB-19 was 6.84 µM (inactive); in the experiment with 786-0, 0.48 µM (active); in the experiment with NCI-H23 it was 3.83 µM (inactive); in the experiment with UACC-257, 8.73 µM (inactive); in the experiment with SN12C it was 0.457 µM (active); in the experiment on NCI-H522 it was 0.234 µM (active). Also, the GI50 is 12.6 µM (inactive) with NCI/ADR-RES; 1.28 µM (inactive) with OVCAR-8; > 37.4 µM (inactive) with T47D; 1.39 µM (inactive) in the experiment with COLO 205; 0.448 µM (active) in the experiment on CCRF-CEM; 2.3 µM (inactive) in the experiment with OVCAR-4. In addition, the 50% growth inhibitory concentration (GI50) was 0.986 µM (active) in the experiment with ACHN; 3.24 µM (inactive) in the experiment on KM12; 0.832 µM (active) with TK-10; 6.35 µM (inactive) with OVCAR-3; 0.57 µM (active) with IGROV-1; 1.38 µM (inactive) in the experiment with MDA-N. Besides, in the experiment with HCT-116, the GI50 was 0.207 µM (active).
Regarding `CCCCn1c(CSc2ccc(Cl)cc2)c(C(=O)OCC)c2cc(OC)c(Br)cc21`, the GI50 in the experiment with SNB-19, in the experiment on 786-0, in the experiment with NCI-H23, in the experiment with UACC-257, in the experiment with SN12C and in the experiment on NCI-H522 was > 100 µM (inactive) each time. The GI50 in the experiment with NCI/ADR-RES, with OVCAR-8, in the experiment on T47D, in the experiment with COLO 205, with CCRF-CEM and in the experiment with OVCAR-4 was > 100 µM (inactive) throughout. Also, the GI50 in the experiment with ACHN, in the experiment with KM12, in the experiment on TK-10, in the experiment on OVCAR-3, in the experiment with IGROV-1 and in the experiment with MDA-N was > 100 µM (inactive) each time. Also, the GI50 with HCT-116 is > 100 µM (inactive).
Consider `CN(C)CCNC(=O)C(C)(C)Oc1ccc(C(=O)c2ccc(Cl)cc2)cc1Cl`, for which the GI50 in the experiment on SNB-19 was 13 µM (inactive); in the experiment with 786-0, 3.91 µM (inactive); with NCI-H23, 9.86 µM (inactive); in the experiment with UACC-257, 2 µM (inactive); in the experiment with SN12C it was 13.4 µM (inactive); in the experiment with NCI-H522 it was 15 µM (inactive). The GI50 is 12.5 µM (inactive) in the experiment on NCI/ADR-RES; 11.8 µM (inactive) with OVCAR-8; 10.4 µM (inactive) with T47D; 1.82 µM (inactive) with COLO 205; 33.4 µM (inactive) with CCRF-CEM; 14.5 µM (inactive) in the experiment on OVCAR-4. Also, the GI50 with ACHN was 11 µM (inactive); in the experiment with KM12, 8.93 µM (inactive); with TK-10, 11.4 µM (inactive); in the experiment with OVCAR-3 it was 12.6 µM (inactive); in the experiment on IGROV-1, 11.9 µM (inactive); in the experiment on MDA-N, 4.45 µM (inactive). For the same compound, the GI50 with HCT-116 is 7.4 µM (inactive).
